The numbers were not newly measured in EP1750675B1, “STABLE ORAL PHARMACEUTICAL COMPOSITIONS OF BUP[…] SALT THEREOF” (Galephar M/F, priority 2004, dated 2005), which cites them from elsewhere.

Counter-ions that a name gives are not always drawn. Like-named read-outs stand apart in the source and are kept apart here.

The conditions of data set [1]: 20°C.
For data set [2] the following is noted: opioid agonist/antagonist.

One may read the solubility as how much of the substance goes into solution per volume. For the molecule `CO[C@]12CC[C@@]3(C[C@@H]1[C@](C)(O)C(C)(C)C)[C@H]1Cc4ccc(O)c5c4[C@@]3(CCN1CC1CC1)[C@H]2O5` [buprenorphine hydrochloride, Buprenorphine hydrochloride], the stability result (at high temperatures (up to 120°C)) is reported as “stable”; the stability entry (in acid and alkaline conditions) is given as “significant degradation”; the stability entry (in neutral solutions (pH 5-7)) was “stable”. For the same molecule, the solubility in data set [1] (in cyclohexane) was roughly 0.02 mg/mL; in data set [1] (in ethanol), roughly 42 mg/mL; in data set [1] (in glacial acetic acid) it was “more than 500 mg/ml”; in data set [1] (in water) it was “about 20 mg/ml”.

Take `CO[C@]12CC[C@@]3(C[C@@H]1[C@](C)(O)C(C)(C)C)[C@H]1Cc4ccc(O)c5c4[C@@]3(CCN1CC1CC1)[C@H]2O5` [Buprenorphine]: in data set [2], the “potency relative to morphine” value was “about forty times as potent as morphine”.
